“Also recorded” adds a separate entry of the source. Where two headings read alike, the source gives them in different places.
Experiments:
[1] = test system: telogen hair follicles of normal C57BL/6 mice; test: induction of anagen by topical treatment of normal mice in telogen; type: in vivo, mouse; conditions: for proliferation in the telogen hair follicle (Ki67) / keratinocyte matrix cells / induction of anagen: vs vehicle; for induction of anagen: topical, mice in telogen
Description: 7-8 weeks old animals in telogen were treated with controls or JAK STAT inhibitors.
Right half of each mouse was administered topical drug, left half of each mouse was treated with DMSO alone.
To test whether inhibition of JAK-STAT signaling could therefore trigger the telogen-to-anagen transition, a topical JAK3 inhibitor was applied to test whether anagen could be induced in normal mouse skin in telogen.

[2] = test system: alopecia areata in grafted C3H/HeJ mice; conditions: for CD8+NKG2D+ T cells in skin and cutaneous lymph nodes: flow cytometry; for ALADIN score / transcriptional signature / GEDI (CTL and IFN signatures): skin; for development / onset of alopecia areata: systemic treatment from time of grafting
Description: Alopecia areata is graded based on severity, location of inflammatory cells, types and relative numbers of inflammatory cells (granulocytes, mast cells, lymphocytes), follicular dystrophy, etc.
Protocol #1: In the prevention setting, recipient mice will be treated beginning the first week after grafting.
Transfer of Alopecia Areata using grafted C3H/HeJ skin. Normal-haired C3H/HeJ mice were grafted at 8 weeks of age (during the second telogen) with skin from a C3H/HeJ mouse that developed AA spontaneously, as described previously^7. In brief, mice spontaneously affected with AA were euthanized, full thickness skin grafts of approximately 2 cm in diameter were removed and grafted to normal-haired C3H/HeJ mice.
Flow cytometric analysis of skin and cutaneous lymph nodes. To make a single cell suspension of mouse skin, fat was removed from the overlying skin in cold PBS and then incubated in collagenase type I (2 mg/ml in PBS) at 32° C. for 75 minutes. After digestion the skin was minced in RPMI/10% fetal bovine serum, filtered through a 70 mM cell strainer, and centrifuged at 1100 g for 5 minutes. The pellet was resuspended in RPMI/10% fetal bovine serum, filtered through a 40 mM cell strainer and spun at 400 g for 5 mins. The pellet was resuspended in FACs buffer (PBS/5% BSA), DAPI to gate on live cells and staining antibodies (listed in Supplemental Data). Cutaneous lymph nodes were pooled minced in RPMI, filtered through a 40 mM cell strainer, centrifuged at 400 g for 5 minutes stained and analysed on a BD LSR II flow cytometer.
Prevention and Treatment Studies. For prevention studies, mice were treatment beginning the day of grafting (n=5-10 mice per group).
(§1) ALADIN scores. The IFN and CTL signatures were used to develop a bivariate score statistic. Individual signature IFN and CTL scores were determined following procedures used in human SLE^,S9,S10. The sets of genes selected to comprise our IFN and CTL signatures were CD8A, GZMB, and ICOS for the CTL signature, and CXCL9, CXCL10, CXCL11, STAT1, and MX1 for the IFN signature. The scores for the prevention mice were calculated in relation to the sham mice; whereas, the scores for the topical treatment experiments were calculated relative to all the samples at week zero.

[3] = test system: C3H/HeJ mice with long-standing alopecia areata; conditions: for CD8+NKG2D+ T cells in skin and cutaneous lymph nodes: flow cytometry; for hair regrowth / reversal of alopecia areata: systemic (pump), established AA
Description: (§2) To make a single cell suspension of mouse skin, fat was removed from the overlying skin in cold PBS and then incubated in collagenase type I (2 mg/ml in PBS) at 32° C. for 75 minutes. After digestion the skin was minced in RPMI/10% fetal bovine serum, filtered through a 70 mM cell strainer, and centrifuged at 1100 g for 5 minutes. The pellet was resuspended in RPMI/10% fetal bovine serum, filtered through a 40 mM cell strainer and spun at 400 g for 5 mins. The pellet was resuspended in FACs buffer (PBS/5% BSA), DAPI to gate on live cells and staining antibodies (listed in Supplemental Data). Cutaneous lymph nodes were pooled minced in RPMI, filtered through a 40 mM cell strainer, centrifuged at 400 g for 5 minutes stained and analysed on a BD LSR II flow cytometer.

[4] = test system: C3H/HeJ mice with long-standing AA; conditions: for CD8+NKG2D+ T cells in treated skin: flow cytometry
Description: as §2, §1

[5] = rodent; cited from earlier work
[6] = all dose groups; cited from earlier work
[7] = test system: Th1 and Th17 transcript markers and keratin 16; conditions: cited from earlier work
[8] = test system: epidermal thickening and dermal inflammation; conditions: in vivo; cited from earlier work
[9] = Active (n = 149); cited from earlier work
[10] = test system: human embryonic scalp; test: drug treatment of human fetal scalp in vitro, hair follicle morphogenesis; type: cell-based; set-up: dose or concentration left out as unconfirmed; conditions: human embryonic scalp at 20 weeks, vs DMSO
Description: Skin was harvested and sectioned and assessed for hair follicle morphology.

[11] = test system: IL-15 triggered pSTAT3 activation; test: IL-15-induced Stat3 activation in T cells; type: cell-based; conditions: T cells / CTL effectors
[12] = test system: dermal sheath cells; test: IL-15-induced LAK cell cytotoxicity against dermal sheath cells; type: cell-based, mouse
Description: In vitro cytotoxicity assays. Determination of specific killing of target cells was performed using CFSE-labeled DS cells at targets mixed with different ratios of effector cells incubated for 5 hours at 37° C. 5% CO2 with or without neutralizing rat anti-mouse NKG2D antibody (20 ug/ml) (Biolegend, CX5). Specific lysis of DS cells was determined flow cytometrically by measuring cell death of CFSE+DS cells using Annexin V/7-AAD.

[13] = C3H/HeJ, mouse, in vivo, 10 mg/kg/day
[14] = test system: IL-15 signaling; conditions: human whole blood assays; cited from earlier work
[15] = topical vs systemic administration

CNC1CCC(N(Cc2cccc(-c3ccncc3)c2)C(=O)c2sc3ccccc3c2Cl)CC1 (stereo not drawn) [SAG]
time to induction of anagen ([1]; post treatment): 4 to 7 days | proliferation in the telogen hair follicle (Ki67) / keratinocyte matrix cells [1]: marked proliferation

tofacitinib
effect on anagen induction compared with SAG ([1]; mouse, in vivo): comparable | time to induction and growth of robust pigmented anagen hairs ([1]; mouse, in vivo): 1-2 weeks | induction of anagen [1]: striking anagen induction | CD8+NKG2D+ T cells in skin and cutaneous lymph nodes ([2]; listed as JAK3 PTKi): eliminating expansion | CD8+NKG2D+ T cells in skin and cutaneous lymph nodes ([2]; listed as JAK3i): significantly decreased | CD8+NKG2D+ T cells in skin and cutaneous lymph nodes ([2]; listed as JAK3 inhibitor): completely eliminated | expression of CD4, CD8, MHC class I and II in skin ([2]; immunohistochemical staining): significantly decreased | inflammatory biomarkers in the skin, including MHC molecules and IFN signature ([2]; mouse, in vivo): ablating | inflammatory profiles (skin microarray, T cell infiltrate stains, serum markers) ([2]; osmotic pump): decreased inflammatory profiles | mice that developed alopecia ([2]; osmotic pump, by six weeks following transplantation, PBS 4/4, vehicle pump 2/2): 0/5 | ALADIN score / transcriptional signature [2]: normalization | GEDI (CTL and IFN signatures) [2]: reduction | development / onset of alopecia areata ([2]; listed as JAK3 PTKi): effectively prevented | development / onset of alopecia areata ([2]; listed as JAK3 inhibitor): do not develop alopecia | CD8+NKG2D+ T cells in skin and cutaneous lymph nodes ([3]; listed as JAK3i): eliminated | CD8+NKG2D+ T cells in skin and cutaneous lymph nodes ([3]; listed as JAK3 inhibitor): elimination; also recorded: devoid | persistence of effect after cessation of treatment ([3]; mouse, in vivo): 2-3 months | hair regrowth / reversal of alopecia areata ([3]; listed as JAK3i): induced hair regrowth all over the body | hair regrowth / reversal of alopecia areata ([3]; listed as JAK3 inhibitor): exhibit hair regrowth | CD8+NKG2D+ T cells in treated skin [4]: significantly decreased | pigmentation of regrown hair coat [4, 15]: darkly pigmented | speed of hair regrowth [4, 15]: very rapid

N#CCC(C1CCCC1)n1cc(-c2ncnc3[nH]ccc23)cn1 (stereo not drawn) [INCB018424]
half-life (t1/2) [5]: 3 to 6 h | Total Lesion Score, decrease over vehicle [6]: ≥ 2 × | clinical responses ([7]; psoriasis subjects, topical): rapid clinical responses | cutaneous Th1/Th17 cytokine responses ([7]; psoriasis subjects, topical): normalization | Th1 and Th17 transcript markers and keratin 16 ([7]; topical treatment): decreased | epidermal thickening and dermal inflammation [8]: markedly reduces | pathological skin thinning [8]: No pathological skin thinning is observed | Adverse event: Abdominal pain, number [9]: 3 | Adverse event: Abdominal pain, value in brackets [9]: (2.0) | Adverse event: Application site irritation, pruritus, number [9]: 14 | Adverse event: Application site irritation, pruritus, value in brackets [9]: (9.3) | Adverse event: Back Pain, value in brackets [9]: (3.4) | Adverse event: Headache, number [9]: 4 | Adverse event: Headache, value in brackets [9]: (2.7) | Adverse event: Influenza, number [9]: 4 | Adverse event: Influenza, value in brackets [9]: (2.7) | Adverse event: Nasopharyngitis, number [9]: 10 | Adverse event: Nasopharyngitis, value in brackets [9]: (6.7) | Adverse event: Sinusitis, number [9]: 6 | Adverse event: Sinusitis, value in brackets [9]: (4.0) | Adverse event: Upper respiratory tract infection, number [9]: 10 | Adverse event: Upper respiratory tract infection, value in brackets [9]: (6.7)

CC1CCN(C(=O)CC#N)CC1N(C)c1ncnc2[nH]ccc12 (stereo not drawn) [tofacitinib]
durability of effect ([1]; 1% daily for 3 weeks): more than 1 month | number of hair follicles vs vehicle treated ([1]; mouse, in vivo): greater | thickness of hair follicles vs vehicle treated ([1]; mouse, in vivo): greater | induction of anagen [1]: marked induction of anagen | proliferation in the telogen hair follicle (Ki67) / keratinocyte matrix cells [1]: marked proliferation | hair follicle morphology, stage of first anagen of morphogenesis [10]: more advanced | IL-15-induced Stat3 (pSTAT3) activation [11]: block; also recorded: inhibits | IL-15-induced LAK cell cytotoxic function (dermal sheath cell cytotoxicity) [12]: inhibit | serum levels [13]: 30 to 40 nM | development of cutaneous lymphadenopathy ([2]; 10 mg/kg/day Alzet pump, 5 mice): None | CD8+NKG2D+ T cells in skin and cutaneous lymph nodes [2]: eliminated; also recorded: prevented | IFN-response chemokines and markers of CD8 cytotoxic effectors in skin ([2]; microarray, 13 weeks of treatment vs PBS): elimination | HF NKG2DL expression (e.g. H60 by immunostain) ([2]; mouse, in vivo): reduced although not completely eliminated | durability of disease prevention after treatment withdrawal ([2]; mouse, in vivo): 12 weeks | histological signs of inflammation in skin ([2]; mouse, in vivo): no histological signs of inflammation | inflammatory biomarkers in the skin, including MHC molecules and IFN signature ([2]; mouse, in vivo): down-regulated | inflammatory infiltrate ([2]; photomicrographs, FIG. 53): normalizes | ALADIN score / transcriptional signature [2]: prevented the emergence | GEDI (CTL and IFN signatures) [2]: prevented the emergence | development / onset of alopecia areata [2]: prevents and None and prevented and inhibited | development / onset of alopecia areata ([2]; listed as CP690550): prevention of AA | hair regrowth / reversal of alopecia areata [3]: complete | disease recurrence after treatment withdrawal ([4]; additional 8 weeks after withdrawal): no evidence of disease recurrence | untreated areas on the abdomen ([4]; drug applied to back skin only): remained alopecic | CD8+NKG2D+ T cells in treated skin [4]: disappearance | ALADIN transcriptional signature ([4]; mouse, in vivo): normalization | durability of effects after cessation of treatment ([4]; mouse, in vivo): 2-3 months | histological markers of disease ([4]; mouse, in vivo): reversal | time to full coat of hair ([4]; topical 0.5% daily): ≤ 7 weeks | time to complete hair regrowth ([4]; topical therapy): ≤ 12 weeks | reversal of established / long-standing AA ([4]; topical, daily, 0.5%): highly effective; also recorded: reversal | IL-15 signaling [14]: inhibit
